One assay concerns HCT-116. As to the kind of experiment: Cell-based assay, anti-proliferative activity (Cell Counting Kit-8, 72 hours). The settings on record: Homo sapiens, read-out: IC50 (μM) HCT-116. On the procedure: (§1) Active candidate inhibitors against SUV39H2 were evaluated for their target-specific cytotoxicity using A549, HCT-116, HFL1, CCD-18Co and PC14. 100 micro-L of cell suspension was seeded onto 96-well microtiter plate (ViewPlate-96FTC, PerkinElmer). The initial cell concentration of A549, HCT-116, HFL1, CCD-18Co and PC14 were 3,000 cells/well, 2,000 cells/well and 2,500 cells/well, respectively. Cellular growth was determined using Cell Counting Kit-8 (DOJINDO) at 72 hours after the exposure of the candidate inhibitors. IC50 was used as an indicator of the anti-proliferative activity of the inhibitors, and calculated by serial dilution method (0, 1.5625, 3.125, 6.25, 12.5, 25, 50, and 100 micro-M). Accurate IC50 values were calculated as described previously.
(Tetrazolium dyes change colour on reduction, which living cells bring about.)

In a further assay the test system is CCD-18Co. The description is as above. Conditions: Homo sapiens, read-out: IC50 (μM) CCD-18Co. As to the method: as §1
A further assay deals with HFL1. The description is as above. The settings on record: Homo sapiens, read-out: IC50 (μM) HFL1. On the procedure:
as §1

Another assay concerns the target SUV39H2 (Homo sapiens (Human), UniProt Q9H5I1). The settings on record: read-out: IC50 (μM) Suv 39H2 assay; enzyme assay.
In a further assay the test system is A549. Description: Cell-based assay, anti-proliferative activity (Cell Counting Kit-8, 72 hours). Conditions: Homo sapiens, read-out: IC50 (μM) A549. On the procedure: 100 micro-L of cell suspension was seeded onto 96-well microtiter plate (ViewPlate-96FTC, PerkinElmer). […] Cellular growth was determined using Cell Counting Kit-8 (DOJINDO) at 72 hours after the exposure of the candidate inhibitors. […] Accurate IC50 values were calculated as described previously.

Setting [1] is: HCT-116 cells, Cell Counting Kit-8, 72 hours.
The mark [2] stands for this setting: CCD-18Co cells, Cell Counting Kit-8, 72 hours.
Where [3] appears, read: HFL1 cells, Cell Counting Kit-8, 72 hours.
Where [4] appears, read: A549 cells, Cell Counting Kit-8, 72 hours.

Structures are written as SMILES. Counter-ions that a name gives are not always drawn. Like-named read-outs stand apart in the source and are kept apart here.

Our source for the IC50 values is patent publication US10508109B2 (priority 2015, dated 2019).

For orientation: IC50 means the point on the concentration scale where inhibition reaches its midpoint.

Sequence of SUV39H2 (Q9H5I1 whole entry): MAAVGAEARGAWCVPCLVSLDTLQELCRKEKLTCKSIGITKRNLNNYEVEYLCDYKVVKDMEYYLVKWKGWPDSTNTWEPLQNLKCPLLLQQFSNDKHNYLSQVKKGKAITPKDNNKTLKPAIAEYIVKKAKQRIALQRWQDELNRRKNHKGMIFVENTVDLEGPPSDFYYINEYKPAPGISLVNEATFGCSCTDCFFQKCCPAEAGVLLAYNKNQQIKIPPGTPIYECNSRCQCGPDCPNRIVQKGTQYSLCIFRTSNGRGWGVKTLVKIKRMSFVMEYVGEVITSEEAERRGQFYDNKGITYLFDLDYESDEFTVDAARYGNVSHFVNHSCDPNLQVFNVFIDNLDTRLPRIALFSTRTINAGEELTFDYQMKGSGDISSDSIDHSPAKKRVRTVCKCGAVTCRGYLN

Take `COc1cc(OC)c(-c2cn3cc(N4CCC(N)CC4)ccc3n2)cc1Cl` [Example 121, 1-(2-(5-chloro-2,4-dimethoxyphenyl)imidazo[1,2-a]pyridin-6-yl)piperidin-4-amine]: the IC50 in the assay with HCT-116 (setting [1]) came out at 18 µM; in the assay with CCD-18Co (setting [2]) it was 6.8 µM; with HFL1 (setting [3]), 6.8 µM; at SUV39H2, 0.0514 µM; with A549 (setting [4]) it was 8.1 µM.

For the compound `COc1cc(OC)c(-c2cn3cc(C4=CCNCC4)c(N4CCOCC4)cc3n2)cc1Cl` [Example 101, 4-(2-(5-chloro-2,4-dimethoxyphenyl)-6-(1,2,3,6-tetrahydropyridin-4-yl)imidazo[1,2-a]pyridin-7-yl)morpholine], the IC50 with HCT-116 (setting [1]) was determined as 8.6 µM; in the assay with CCD-18Co (setting [2]), 6.6 µM; in the assay with HFL1 (setting [3]), 7.5 µM; at SUV39H2 it was 0.0105 µM; in the assay with A549 (setting [4]), 8.3 µM.

On to `COc1cc(OC)c(-c2cn3ccc(N4CC[C@@H](NC(=O)OC(C)(C)C)C4)nc3n2)cc1Cl` [Example 57, (R)-tert-Butyl (1-(2-(5-chloro-2,4-dimethoxyphenyl)imidazo[1,2-a]pyrimidin-7-yl)-pyrrolidin-3-yl)carbamate], for which the IC50 in the assay with HCT-116 (setting [1]) was 7.2 µM; in the assay with CCD-18Co (setting [2]), 4.8 µM; with HFL1 (setting [3]), 4 µM; on SUV39H2, 0.0108 µM; with A549 (setting [4]), 7.1 µM.

With `COc1cc(OC)c(-c2cn3ccc(C4=CCN(CC#N)CC4)cc3n2)cc1Cl` [Example 111, 2-(4-(2-(5-chloro-2,4-dimethoxyphenyl)imidazo[1,2-a]pyridin-7-yl)-5,6-dihydropyridin-1(2H)-yl)acetonitrile], the concentration for half-maximal inhibition (IC50) came out at 3.5 µM with HCT-116 (setting [1]); 4.8 µM with CCD-18Co (setting [2]); 1.9 µM in the assay on HFL1 (setting [3]); 0.0614 µM on SUV39H2; 3.3 µM with A549 (setting [4]).

Turning to `COc1cc(OC)c(-c2cn3cc(NCCN)ccc3n2)cc1Cl` [Example 81, N^1-(2-(5-chloro-2,4-dimethoxyphenyl)imidazo[1,2-a]pyridin-6-yl)ethane-1,2-diamine], the IC50 stood at 11 µM in the assay with HCT-116 (setting [1]); 11 µM with CCD-18Co (setting [2]); 5.6 µM in the assay with HFL1 (setting [3]); 0.0179 µM at SUV39H2; 13 µM in the assay on A549 (setting [4]).

Take `COC(=O)N1CC=C(c2ccn3cc(-c4cc(Cl)c(OC)cc4OC)nc3c2)CC1` [Example 102, methyl 4-[2-(5-chloro-2,4-dimethoxyphenyl)imidazo[1,2-a]pyridin-7-yl]-5,6-dihydropyridine-1(2H)-carboxylate]: the IC50 in the assay with HCT-116 (setting [1]) is 1.9 µM; with CCD-18Co (setting [2]), 2.8 µM; with HFL1 (setting [3]), 2.3 µM; on SUV39H2 it was 0.0756 µM; in the assay with A549 (setting [4]), 1.6 µM.

With `COc1cc(OC)c(-c2cn3ccc(NCCNC(=O)OC(C)(C)C)nc3n2)cc1Br` [Example 18, tert-butyl (2-((2-(5-bromo-2,4-dimethoxyphenyl)imidazo[1,2-a]pyrimidin-7-yl)amino)ethyl)carbamate], the concentration for half-maximal inhibition (IC50) with HCT-116 (setting [1]) turned out to be 13 µM; with CCD-18Co (setting [2]) it was 12 µM; in the assay on HFL1 (setting [3]), 11 µM; at SUV39H2, 0.0884 µM; in the assay on A549 (setting [4]), 14 µM.

`COc1cc(OC)c(-c2cn3cnc(N)cc3n2)cc1Cl` [Example 51, 2-(5-chloro-2,4-dimethoxyphenyl)imidazo[1,2-c]pyrimidin-7-amine]: the IC50 was determined as 8.9 µM in the assay on HCT-116 (setting [1]); 6.8 µM with CCD-18Co (setting [2]); 8.4 µM with HFL1 (setting [3]); 0.0531 µM on SUV39H2; 9.8 µM in the assay with A549 (setting [4]).

In the case of `COc1cc(OC)c(-c2cn3ccc(C4CCNCC4)cc3n2)cc1Cl` [Example 112, 2-(5-chloro-2,4-dimethoxyphenyl)-7-(piperidin-4-yl)imidazo[1,2-a]pyridine], the IC50 came to 7.5 µM with HCT-116 (setting [1]); 8.8 µM in the assay on CCD-18Co (setting [2]); 6.7 µM in the assay on HFL1 (setting [3]); 0.0623 µM on SUV39H2; 6.3 µM with A549 (setting [4]).

For `COc1cc(OC)c(-c2cn3ccc(N4CCOCC4)cc3n2)cc1F` [Example 87, 4-(2-(5-fluoro-2,4-dimethoxyphenyl)imidazo[1,2-a]pyridin-7-yl)morpholine hydrobromide], the 50% inhibitory concentration (IC50) is 2.3 µM with HCT-116 (setting [1]); 5.6 µM with CCD-18Co (setting [2]); 4 µM in the assay with HFL1 (setting [3]); 0.032 µM at SUV39H2; 3.3 µM in the assay on A549 (setting [4]).

`COc1cc(OC)c(-c2cn3ccc(N4CCC(CNC(=O)OC(C)(C)C)CC4)nc3n2)cc1Cl` [Example 32, tert-butyl ((1-(2-(5-chloro-2,4-dimethoxyphenyl)imidazo[1,2-a]pyrimidin-7-yl)piperidin-4-yl)methyl)carbamate]: the half-inhibitory concentration (IC50) with HCT-116 (setting [1]) was 8.4 µM; with CCD-18Co (setting [2]), 6.3 µM; in the assay with HFL1 (setting [3]), 4.6 µM; at SUV39H2, 0.037 µM; with A549 (setting [4]), 6.7 µM.

For the compound `COc1cc(OC)c(-c2cn3ccc(N4CCNCC4)cc3n2)cc1Cl` [Example 17, 2-(5-chloro-2,4-dimethoxyphenyl)-7-(piperazin-1-yl)imidazo[1,2-a]pyridine], the IC50 amounted to 4.5 µM in the assay with HCT-116 (setting [1]); 8.6 µM in the assay with CCD-18Co (setting [2]); 3.3 µM in the assay with HFL1 (setting [3]); 0.0195 µM at SUV39H2; 6.1 µM with A549 (setting [4]).

For the compound `COc1cc(OCCCN(C)C)c(-c2cn3ccc(N4CCOCC4)cc3n2)cc1Cl` [Example 85, 3-(4-chloro-5-methoxy-2-(7-morpholinoimidazo[1,2-a]pyridin-2-yl)-phenoxy)-N,N-dimethylpropan-1-amine], the concentration for half-maximal inhibition (IC50) in the assay with HCT-116 (setting [1]) stood at 9 µM; with CCD-18Co (setting [2]), 7.9 µM; in the assay on HFL1 (setting [3]), 3.5 µM; at SUV39H2, 0.0338 µM; in the assay with A549 (setting [4]) it was 8.7 µM.

Turning to `COc1cc(OC)c(-c2cn3ccc(N4CCC(NC(=O)OC(C)(C)C)C4)nc3n2)cc1C#N` (stereo not drawn) [Example 74, tert-butyl (1-(2-(5-cyano-2,4-dimethoxyphenyl)imidazo[1,2-a]pyrimidin-7-yl)pyrrolidin-3-yl) carbamate], the IC50 came out at 8.1 µM in the assay with HCT-116 (setting [1]); 6.4 µM with CCD-18Co (setting [2]); 3.9 µM with HFL1 (setting [3]); 0.0303 µM on SUV39H2; 8.5 µM in the assay with A549 (setting [4]).

Take `COc1cc(OC)c(-c2cn3ccc(N4CCC(NC(=O)CCNC(=O)OC(C)(C)C)C4)nc3n2)cc1Br` (stereo not drawn) [Example 65]: the IC50 with HCT-116 (setting [1]) amounted to 17 µM; in the assay with CCD-18Co (setting [2]), 26 µM; in the assay with HFL1 (setting [3]) it was 27 µM; on SUV39H2, 0.014 µM; in the assay on A549 (setting [4]), 28 µM.

As for `COc1cc(OC)c(-c2cn3ccc(N4CCOCC4)cc3n2)cc1C#N` [Example 93, 2,4-Dimethoxy-5-(7-morpholinoimidazo[1,2-a]pyridin-2-yl)benzonitrile], the IC50 in the assay on HCT-116 (HCT-116, 72 h) was 6.4 µM; with CCD-18Co (CCD-18Co, 72 h) it was 6.3 µM; with HFL1 (HFL1, 72 h), 9.6 µM; at SUV39H2, 0.0119 µM; in the assay with A549 (A549, 72 h), 6.4 µM.

As for `CCOC(=O)N1CCN(c2ccn3cc(-c4cc(Cl)c(OC)cc4OC)nc3c2)CC1` [Example 107, ethyl 4-[2-(5-chloro-2,4-dimethoxyphenyl)imidazo[1,2-a]pyridin-7-yl]-piperazine-1-carboxylate], the IC50 in the assay with HCT-116 (setting [1]) worked out at 1.7 µM; with CCD-18Co (setting [2]) it was 3.2 µM; in the assay with HFL1 (setting [3]), 1.7 µM; at SUV39H2 it was 0.0116 µM; in the assay with A549 (setting [4]), 2.3 µM.

As to `COc1cc(OC)c(-c2cn3ccc(N4CCC(N)C4)cc3n2)cc1C#N` (stereo not drawn) [Example 73, 5-[7-(3-aminopyrrolidin-1-yl)imidazo[1,2-a]pyridin-2-yl]-2,4-dimethoxybenzonitrile], the half-maximal inhibitory concentration (IC50) in the assay with HCT-116 (setting [1]) was 1.5 µM; with CCD-18Co (setting [2]), 5.6 µM; in the assay on HFL1 (setting [3]) it was 1.5 µM; at SUV39H2, 0.0112 µM; with A549 (setting [4]) it was 2.3 µM.

Turning to `COc1cc(OC)c(-c2cn3ccc(N4CCN(CCC#N)CC4)cc3n2)cc1Cl` [Example 108, 3-(4-(2-(5-chloro-2,4-dimethoxyphenyl)imidazo[1,2-a]pyridin-7-yl)piperazin-1-yl)propanenitrile], the IC50 in the assay on HCT-116 (setting [1]) stood at 10 µM; with CCD-18Co (setting [2]), 5.9 µM; with HFL1 (setting [3]) it was 3 µM; on SUV39H2, 0.0142 µM; in the assay with A549 (setting [4]) it was 6.3 µM.

On to `COc1ccc(-c2cn3ccc(N4CCCC4)cc3n2)cc1C#N` [Example 21, 2-methoxy-5-(7-(pyrrolidin-1-yl)imidazo[1,2-a]pyridin-2-yl)benzonitrile hydrobromide], for which the half-inhibitory concentration (IC50) in the assay on HCT-116 (setting [1]) is 3.1 µM; with CCD-18Co (setting [2]), 5.5 µM; in the assay with HFL1 (setting [3]), 2.5 µM; at SUV39H2, 0.0733 µM; with A549 (setting [4]), 4.2 µM.

With `COc1cc(OC)c(-c2cn3ccc(N)nc3n2)cc1Cl` [Example 8, 2-(5-chloro-2,4-dimethoxyphenyl)imidazo[1,2-a]pyrimidin-7-amine], the 50% inhibitory concentration (IC50) with HCT-116 (setting [1]) turned out to be 16 µM; in the assay on CCD-18Co (setting [2]), 19 µM; with HFL1 (setting [3]), 21 µM; on SUV39H2, 0.0182 µM; in the assay with A549 (setting [4]), 17 µM.
